Laboratory results as given in patent publication US20180355033A1, “ANTIBODIES, COMPOUNDS AND SCREENS FOR IDENTIFYING AND TREATING CACHEXIA OR PRE-CACHEXIA” (Dana-Farber Cancer Institute, Inc., priority 2015, published 2018).
Entries after “also recorded” stand apart in the source; their conditions may differ. Values belong to the molecule of their own block, whether it stands above or below them.

How the values were obtained:
RAGE [1] = target: T1, RAGE (Homo sapiens, UniProt Q15109); conditions: cited from earlier work
A-beta brain entry = conditions: in vivo; cited from earlier work
HSkM = test: Functional testing in Cachexia Assay (HSkM functional assay); assay type: cell-based, human; conditions: FIG. 25
Excerpt: This implies that the modeled Ab epitope is likely a functional focused target for Ab therapy and that this is the basis for further small molecule therapeutic development for cancer cachexia and other RAGE mediated diseases.

V domain of RAGE = V domain of RAGE (Homo sapiens, UniProt Q15109); conditions: cited from earlier work
rat model of ICH = conditions: cited from earlier work
RAGE-expressing cells = RAGE-expressing cells in vitro and mouse brain in vivo; cited from earlier work
[2] = system: Primary human myoblast differentiated into terminal myotubes; test: Cachexia induction by recombinant S100/HMGB1 ligands, myosin HC in-cell Western; assay type: cell-based; conditions: recombinant ligand applied each day for 3 days
Experimental: FIGS. 1-3 illustrate the effect of various proteins of the S100 family, as well as HMGB1, as cachexia inducers when compared with cachexia-inducing media. Primary human myoblast were plated and differentiated into terminal myotubes as previously described. Recombinant ligands were prepared at the same dose curve in Hanks Balance Salt Solution (buffer) and applied 1:2 v:v to fresh maintenance media each day for 3 days. Cells were assessed for myosin HC content by in-cell Western staining as previously described.

RAGE [3] = target: T1, RAGE; test: Direct immunoprecipitation with RAGE; assay type: binding; conditions: direct immunoprecipitation experiments

T1 sequence (Q15109 23-404): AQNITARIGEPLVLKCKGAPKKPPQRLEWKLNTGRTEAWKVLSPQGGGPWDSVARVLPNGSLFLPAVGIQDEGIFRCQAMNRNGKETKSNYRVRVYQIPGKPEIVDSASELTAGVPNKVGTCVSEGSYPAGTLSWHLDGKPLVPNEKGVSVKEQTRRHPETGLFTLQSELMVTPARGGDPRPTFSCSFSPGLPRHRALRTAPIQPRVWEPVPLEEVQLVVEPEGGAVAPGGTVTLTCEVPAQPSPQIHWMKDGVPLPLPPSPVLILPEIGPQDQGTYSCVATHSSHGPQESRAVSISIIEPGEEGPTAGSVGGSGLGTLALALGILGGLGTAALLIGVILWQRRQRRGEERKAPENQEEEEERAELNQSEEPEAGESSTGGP
Chain of V domain of RAGE (Q15109 23-116 limits assumed): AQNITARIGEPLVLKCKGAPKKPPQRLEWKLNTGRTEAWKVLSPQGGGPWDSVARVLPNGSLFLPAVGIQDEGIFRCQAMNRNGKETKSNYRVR

Molecule: CCN(CC)CCOc1cccc(Nc2nc(C)cc(-c3ccc(OCCC4CCCCC4)cc3)n2)c1 [Compound 53, 4-(4-(2-cyclohexylethoxy)phenyl)-N-(3-(2-(diethylamino)ethoxy)-phenyl)-6-methylpyrimidin-2-amine]
affinity to ligand (RAGE [1]): highest affinity to ligand

Molecule: CCN(CC)CCOc1cccc(Nc2nc(-c3ccc(Cl)cc3)cc(-c3ccc(Cl)cc3)n2)c1 [Compound 59, 4,6-bis(4-chlorophenyl)-N-(3-(2-(diethylamino)ethoxy)phenyl)-pyrimidin-2-amine]
affinity to ligand (RAGE [1]): highest affinity to ligand | inhibition (not further specified) (RAGE [1]): most significant inhibition | A-beta brain entry inhibition (A-beta brain entry): most potent A-beta brain entry inhibition

Molecule: CCN(CC)CCOc1ccccc1Nc1nc(-c2ccc(Cl)cc2)cc(-c2ccc(Cl)cc2)n1 [Compound 60, 4,6-bis(4-chlorophenyl)-N-(2-(2-(diethylamino)ethoxy)phenyl)-pyrimidin-2-amine]
affinity to ligand (RAGE [1]): highest affinity to ligand | in vitro activity (RAGE [1]): best in vitro activity

Molecule: CCCCCC(=Cc1ccccc1)CN(CCc1c[nH]c2ccccc12)C(=O)c1ccc(Cl)c([N+](=O)[O-])c1 [FPS3]
inhibition of cachexia phenotype (HSkM): inhibits cachexia phenotype

Molecule: O=C(c1ccc(Cl)cc1)N(Cc1ccccc1)C1CCCCC1 [FPS-ZM1]
blocking of Aβ binding to the V domain of RAGE (V domain of RAGE): blocked A13 binding to the V domain of RAGE | BBB damage, brain edema, motor dysfunction, nerve fiber injury (rat model of ICH; rat ICH model, FPS-ZM1 administration): significant improvements of BBB damage, brain edema, motor dysfunction, and nerve fiber injury | FeCl2-induced RAGE and nuclear factor κB p65 upregulation (rat model of ICH; rat, in vivo): reversed FeCl2-induced RAGE and nuclear factor κB p65 upregulation | inhibition of Aβ40- and Aβ42-induced cellular stress (RAGE-expressing cells): inhibited A1340- and A1342-induced cellular stress

direct binding to RAGE (RAGE [3]): directly bind to RAGE
Molecule: S100A8/A9: recombinant S100A8/A9 (Calprotectin)
induction of the cachectic phenotype (myosin HC content) [2]: capable of inducing the cachexia phenotype

direct binding to RAGE (RAGE [3]): directly bind to RAGE
B1: S100 A7: recombinant RAGE ligand of the S100 family (protein, UniProt P31151 2-101, looked up)
Protein S100-A7: SNTQAERSIIGMIDMFHKYTRRDDKIEKPSLLTMMKENFPNFLSACDKKGTNYLADVFEKKDKNEDKKIDFSEFLSLLGDIATDYHKQSHGAAPCSGGSQ
induction of the cachectic phenotype (myosin HC content) [2]: inducers of the cachectic phenotype | induction of the cachectic phenotype (myosin HC content) ([2]; listed as S100A7): capable of inducing the cachexia phenotype

B2: A8: recombinant RAGE ligand of the S100 family (protein, UniProt P05109 1-93, looked up)
Protein S100-A8: MLTELEKALNSIIDVYHKYSLIKGNFHAVYRDDLKKLLETECPQYIRKKGADVWFKELDINTDGAVNFQEFLILVIKMGVAAHKKSHEESHKE
induction of the cachectic phenotype (myosin HC content) [2]: inducers of the cachectic phenotype

B3: HMGB1: high mobility group box 1, RAGE ligand (protein, UniProt P09429 1-215, looked up)
High mobility group protein B1: MGKGDPKKPRGKMSSYAFFVQTCREEHKKKHPDASVNFSEFSKKCSERWKTMSAKEKGKFEDMAKADKARYEREMKTYIPPKGETKKKFKDPNAPKRPPSAFFLFCSEYRPKIKGEHPGLSIGDVAKKLGEMWNNTAADDKQPYEKKAAKLKEKYEKDIAAYRAKGKPDAAKKGVVKAEKSKKKKEEEEDEEDEEDEEEEEDEEDEDEEEDDDDE
induction of the cachectic phenotype (myosin HC content) [2]: do not induce precachexia and/or cachexia; also recorded: not cachexogenic in muscle; also recorded: cannot; also recorded: does not induce the cachectic phenotype

B4: S100B: recombinant S100 family RAGE ligand (protein, UniProt P04271 2-92, looked up)
Protein S100-B: SELEKAMVALIDVFHQYSGREGDKHKLKKSELKELINNELSHFLEEIKEQEVVDKVMETLDNDGDGECDFQEFMAFVAMVTTACHEFFEHE
induction of the cachectic phenotype (myosin HC content) [2]: little or no activity in inducing cachexia; also recorded: do not induce precachexia and/or cachexia

B5: A9: recombinant RAGE ligand of the S100 family (protein, UniProt P06702 1-114, looked up)
Protein S100-A9: MTCKMSQLERNIETIINTFHQYSVKLGHPDTLNQGEFKELVRKDLQNFLKKENKNEKVIEHIMEDLDTNADKQLSFEEFIMLMARLTWASHEKMHEGDEGPGHHHKPGLGEGTP
induction of the cachectic phenotype (myosin HC content) [2]: inducers of the cachectic phenotype
